Test results reported in US20240252651A1, “METHOD OF DELIVERING NUCLEIC ACIDS INTO CELLS” (GUANGZHOU LIDE BIOMEDICINE TECHNOLOGY CO., LTD., priority 2021, published 2024).
Entries after “also recorded” stand apart in the source; their conditions may differ.

Tests used:
A549 cells (A549-Luc) = test: siRNA transfection, luciferase gene silencing in A549-Luc cells; format: cell-based, human; conditions: final siRNA 100 nM, material 0.5 to 3 μg/well, 48 h, FIG. 10
Procedure: In this experiment, with I2R2C18-1A1, I2R3C18-1A1, I2R2C18-2A1, and I2R3C18-2A1 as representative cationic lipid analog materials, siRNA transfection and delivery effects of the cationic lipid analog materials were detected in A549 cells (A549-Luc). A specific operation method was as follows:
Luciferase-expressing A549 cells (A549-Luc) were inoculated in a 96-well plate and cultured in an incubator for 12 h; each of different materials (0.5 μg/well to 3 μg/well) was mixed with siRNA in 40 μL of a sodium acetate buffer (25 mM, pH 5.2), and resulting mixtures each were allowed to stand for 10 min and then diluted with 460 μL of an Opti-MEM medium to obtain siRNA-loaded complex particle solutions (final siRNA concentration was 100 nM); a medium for the A549-Luc cells in the plate was removed, then the A549-Luc cells were washed once with PBS, and the complex particle solutions each were added in a volume of 125 μL; the cells were cultured for 48 h, then a resulting culture supernatant was discarded, and the cells were fully lysed; and a substrate was added at 50 μl/well, and an expression level of luciferase was detected by a multi-mode microplate reader.

DC 2.4 cells = test: Transfection of eGFP-mRNA in DC 2.4 cells (FCM and LSCM); format: cell-based, mouse; conditions: mRNA 0.2 μg/well, material 0.25 to 2 μg/well (dosages per FIG. 7), 24 h, FIG. 7-9
Procedure: In this experiment, with eGFP-mRNA as model mRNA, an mRNA transfection efficiency of a cationic lipid analog material in DC 2.4 cells was detected. A specific operation method was as follows:
DC 2.4 cells were inoculated in a 48-well plate and cultured in an incubator for 12 h; each of different cationic lipid analog materials (0.25 μg/well to 2 μg/well) was mixed with cGFP-expressing mRNA (0.2 μg/well) in 20 μL of a sodium acetate buffer (25 mM, pH 5.2), and resulting mixtures each were allowed to stand for 10 min and then diluted with 230 μL of a Opti-MEM medium to obtain mRNA-loaded complex particle solutions; a medium for the […] were washed once with PBS, and the complex particle solutions were added; and the cells were cultured for 24 h, an mRNA transfection efficiency in cells was observed by FCM and LSCM. A commercial gene transfection reagent Lipofectamine 2000 was adopted as a positive control.

Hela cells [1] = test: Transfection of luciferase-expressing plasmid DNA in HeLa cells (luciferase expression); format: cell-based, human; conditions: plasmid DNA 0.5 μg, 24 h, luciferase expression level, FIG. 5
Procedure: In this example, with luciferase-expressing plasmid DNA as a reporter gene, a gene transfection efficiency of a cationic lipid analog material in HeLa cells was detected. A specific operation method was as follows: Hela cells were inoculated in a 96-well plate and cultured in an incubator for 12 h; each of different cationic lipid analog materials was mixed with luciferase-expressing plasmid DNA (0.5 μg) in 40 μL of a sodium acetate buffer (25 mM, pH 5.2), and resulting mixtures each were allowed to stand for 10 min and then diluted with 460 μL of an Opti-MEM medium to obtain plasmid DNA-loaded cationic lipid analog complex particle solutions; a medium for the Hela cells in the plate was removed, then the Hela cells were washed once with PBS, and the complex particle solutions were added in a volume of 125 μL; the cells were cultured for 24 h, then a resulting culture supernatant was discarded, and the cells were fully lysed; and a substrate was added at 50 μl/well, and an expression level of luciferase was detected by a multi-mode microplate reader.

[2] = tested on: DC2.4, RAW 264.7, A549, BxPC3, and HeLa cells; test: Transfection of GFP-expressing plasmid DNA in different types of cells (LSCM); format: cell-based, human, mouse; conditions: material 0.5 to 3 μg/well, plasmid DNA 0.5 μg/well, 24 h, FIG. 6
Procedure: In this experiment, with I2R3C18-1A1 as a representative cationic lipid analog material and GFP-expressing plasmid DNA as a reporter gene, transfection effects of the cationic lipid analog material at different dosages (0.5 μg/well to 3 μg/well) for plasmid DNA (0.5 μg/well) in different types of cells were investigated. A commercial gene transfection reagent Lipofectamine 2000 was adopted as a positive control. In this experiment, a GFP-expressing plasmid DNA-loaded I2R3C18-1A1 particle complex solution was prepared with reference to the method in Example 8 and added to DC2.4, RAW 264.7, A549, BxPC3, and HeLa cells respectively, these cells were cultured for 24 h, and then a transfection efficiency of plasmid DNA in cells was observed by LSCM.

Hela cells [3] = test: Transfection of GFP-expressing plasmid DNA in Hela cells (flow cytometer); format: cell-based, human; conditions: plasmid DNA 0.5 μg/well, material 0.25 to 8 μg/well (dosages per FIG. 4), 24 h
Procedure: In this experiment, with GFP-expressing plasmid DNA as a reporter gene, a gene transfection efficiency of a cationic lipid analog material in Hela cells was detected. A specific method was as follows:
Hela cells were inoculated in a 24-well plate and cultured in an incubator for 12 h; each of different cationic lipid analog materials (0.25 μg/well to 8 μg/well) was mixed with GFP-expressing plasmid DNA (0.5 μg/well) in 40 μL of a sodium acetate buffer (25 mM, pH 5.2), and resulting mixtures each were allowed to stand for 10 min and then diluted with 460 μL of an Opti-MEM medium to obtain plasmid DNA-loaded cationic lipid analog complex particle solutions; a medium for the Hela cells in the plate was removed, then the HeLa cells were washed once with PBS, and the complex particle solutions were added; and the cells were cultured for 24 h, and then a plasmid DNA transfection efficiency in cells was analyzed by a flow cytometer. A commercial gene transfection reagent Lipofectamine 2000 was adopted as a positive control.

In the case of CCCCCCCC/C=C\CCCCCCCC(=O)N(CCCN(CC)CC)C(C(=O)NCCOCCOCCNC(=O)C(C(C)C)N(CCCN(CC)CC)C(=O)CCCCCCC/C=C\CCCCCCCC)C(C)C (stereo not drawn) [I2R3C18-1A1], the “gene silencing efficiency as a function of material dosage” value (A549 cells (A549-Luc)) is reported as “increases with the increase of a dosage”, the “siRNA transfection, silencing of the luciferase reporter gene” value (A549 cells (A549-Luc)) is reported as “efficient gene silencing; also recorded: can transfect siRNA into cells to specifically silence the expression of the luciferase reporter gene” and the “mRNA transfection efficiency (eGFP-mRNA), compared with Lipofectamine 2000” value (DC 2.4 cells) is reported as “high transfection efficiency; also recorded: equivalent to or higher than”. The “transfection efficiency of luciferase-expressing plasmid DNA, compared with Lipofectamine 2000” value (Hela cells [1]) was “equivalent to or higher than”, the “transfection of GFP-expressing plasmid DNA in different types of cells” value [2] was “can transfect GFP-expressing plasmid DNA into tumor cells and immune cells” and the “transfection efficiency of GFP-expressing plasmid DNA, compared with commercial transfection reagent Lipofectamine 2000” value (Hela cells [3]) was “reaches or is higher than; also recorded: equivalent to or higher than”.
